Active and inactive are the calls of the source.
How the values were obtained:
[1] = biological target: T1, DNA dC->dU-editing enzyme APOBEC-3A (Homo sapiens, UniProt P31941); assay: A3A deaminase inhibition for selectivity – biochemical, dose response (AID 504722); type: functional
[2] = biological target: Induced myeloid leukemia cell differentiation protein Mcl-1 (Homo sapiens, UniProt Q07820); type: functional
[3] = biological target: T2, Heat shock factor protein 1 (Mus musculus, UniProt P38532); assay: enhancement of HSF1-driven luciferase signal – cell-based, NIH3T3, luminescence, dose retest, confirmation (AID 435004); type: functional;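 note: stress induced by proteasome inhibitor MG132 added 30 min after compound; luciferase reporter driven by HSF1 response element in NIH3T3 cells; actives raise luminescence as potentiators of the MG132 stress response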
T2 sequence (P38532 whole entry): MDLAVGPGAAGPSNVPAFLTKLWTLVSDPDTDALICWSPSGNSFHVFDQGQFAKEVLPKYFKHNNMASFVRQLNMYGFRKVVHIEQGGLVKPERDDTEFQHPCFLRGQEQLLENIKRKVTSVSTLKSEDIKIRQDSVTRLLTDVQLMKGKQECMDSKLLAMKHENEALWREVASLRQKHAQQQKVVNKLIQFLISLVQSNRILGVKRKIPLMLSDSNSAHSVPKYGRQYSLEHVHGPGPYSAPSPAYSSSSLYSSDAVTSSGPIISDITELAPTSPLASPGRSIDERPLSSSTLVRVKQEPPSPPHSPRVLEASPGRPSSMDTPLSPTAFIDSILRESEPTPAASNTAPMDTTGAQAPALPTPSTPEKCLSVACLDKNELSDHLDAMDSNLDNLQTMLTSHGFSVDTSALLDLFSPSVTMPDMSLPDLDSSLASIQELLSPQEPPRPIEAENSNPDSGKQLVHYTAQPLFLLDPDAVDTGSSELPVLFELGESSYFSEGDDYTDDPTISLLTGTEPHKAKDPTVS

[4] = biological target: T3, DNA dC->dU-editing enzyme APOBEC-3G (Homo sapiens, UniProt Q9HC16); assay: Dose Response confirmation of small molecule APOBEC3G DNA Deaminase Inhibitors via a fluorescence-based single-stranded DNA deaminase assay. [Related pubchem assays (depositor defined):AID493012, AID493028]; type: functional
T3 sequence (Q9HC16 whole entry): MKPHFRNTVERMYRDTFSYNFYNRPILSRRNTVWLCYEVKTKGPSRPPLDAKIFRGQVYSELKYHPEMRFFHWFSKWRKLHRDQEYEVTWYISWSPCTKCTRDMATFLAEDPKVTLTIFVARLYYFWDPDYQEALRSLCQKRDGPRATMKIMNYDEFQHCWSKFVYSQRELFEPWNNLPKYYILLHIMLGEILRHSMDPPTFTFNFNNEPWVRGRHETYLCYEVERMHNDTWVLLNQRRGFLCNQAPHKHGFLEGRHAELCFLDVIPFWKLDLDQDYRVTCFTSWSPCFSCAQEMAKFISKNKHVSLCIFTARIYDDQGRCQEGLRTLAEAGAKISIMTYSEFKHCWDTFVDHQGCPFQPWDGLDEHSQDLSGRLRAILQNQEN

[5] = biological target: Glucose-6-phosphate 1-dehydrogenase (Homo sapiens, UniProt P11413); assay: inhibition of Homo sapiens G6PD, dose series – biochemical, fluorescence, selectivity assay for P. falciparum G6PD inhibitor project, dose response (AID 504792); type: functional
Sequence of Glucose-6-phosphate 1-dehydrogenase (P11413 whole entry): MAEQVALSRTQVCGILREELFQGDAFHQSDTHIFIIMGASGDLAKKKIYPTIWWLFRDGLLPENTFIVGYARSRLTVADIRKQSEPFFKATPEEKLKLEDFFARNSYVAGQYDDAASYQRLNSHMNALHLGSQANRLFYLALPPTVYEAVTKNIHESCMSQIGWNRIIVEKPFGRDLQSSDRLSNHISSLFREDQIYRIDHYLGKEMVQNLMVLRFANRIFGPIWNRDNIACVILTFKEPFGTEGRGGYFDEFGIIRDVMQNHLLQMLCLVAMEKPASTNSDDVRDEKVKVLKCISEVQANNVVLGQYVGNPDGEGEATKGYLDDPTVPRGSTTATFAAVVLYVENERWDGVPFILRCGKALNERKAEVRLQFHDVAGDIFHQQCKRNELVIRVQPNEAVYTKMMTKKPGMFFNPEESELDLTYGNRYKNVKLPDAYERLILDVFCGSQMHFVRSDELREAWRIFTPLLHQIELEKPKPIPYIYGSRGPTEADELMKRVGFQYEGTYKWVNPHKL

[6] = biological target: T4, Voltage-gated N-type calcium channel alpha-1B subunit/Amyloid beta A4 precursor protein-binding family A member 1 (Homo sapiens, UniProt Q00975+Q02410); type: protein assay
T4 sequence (Q00975 whole entry): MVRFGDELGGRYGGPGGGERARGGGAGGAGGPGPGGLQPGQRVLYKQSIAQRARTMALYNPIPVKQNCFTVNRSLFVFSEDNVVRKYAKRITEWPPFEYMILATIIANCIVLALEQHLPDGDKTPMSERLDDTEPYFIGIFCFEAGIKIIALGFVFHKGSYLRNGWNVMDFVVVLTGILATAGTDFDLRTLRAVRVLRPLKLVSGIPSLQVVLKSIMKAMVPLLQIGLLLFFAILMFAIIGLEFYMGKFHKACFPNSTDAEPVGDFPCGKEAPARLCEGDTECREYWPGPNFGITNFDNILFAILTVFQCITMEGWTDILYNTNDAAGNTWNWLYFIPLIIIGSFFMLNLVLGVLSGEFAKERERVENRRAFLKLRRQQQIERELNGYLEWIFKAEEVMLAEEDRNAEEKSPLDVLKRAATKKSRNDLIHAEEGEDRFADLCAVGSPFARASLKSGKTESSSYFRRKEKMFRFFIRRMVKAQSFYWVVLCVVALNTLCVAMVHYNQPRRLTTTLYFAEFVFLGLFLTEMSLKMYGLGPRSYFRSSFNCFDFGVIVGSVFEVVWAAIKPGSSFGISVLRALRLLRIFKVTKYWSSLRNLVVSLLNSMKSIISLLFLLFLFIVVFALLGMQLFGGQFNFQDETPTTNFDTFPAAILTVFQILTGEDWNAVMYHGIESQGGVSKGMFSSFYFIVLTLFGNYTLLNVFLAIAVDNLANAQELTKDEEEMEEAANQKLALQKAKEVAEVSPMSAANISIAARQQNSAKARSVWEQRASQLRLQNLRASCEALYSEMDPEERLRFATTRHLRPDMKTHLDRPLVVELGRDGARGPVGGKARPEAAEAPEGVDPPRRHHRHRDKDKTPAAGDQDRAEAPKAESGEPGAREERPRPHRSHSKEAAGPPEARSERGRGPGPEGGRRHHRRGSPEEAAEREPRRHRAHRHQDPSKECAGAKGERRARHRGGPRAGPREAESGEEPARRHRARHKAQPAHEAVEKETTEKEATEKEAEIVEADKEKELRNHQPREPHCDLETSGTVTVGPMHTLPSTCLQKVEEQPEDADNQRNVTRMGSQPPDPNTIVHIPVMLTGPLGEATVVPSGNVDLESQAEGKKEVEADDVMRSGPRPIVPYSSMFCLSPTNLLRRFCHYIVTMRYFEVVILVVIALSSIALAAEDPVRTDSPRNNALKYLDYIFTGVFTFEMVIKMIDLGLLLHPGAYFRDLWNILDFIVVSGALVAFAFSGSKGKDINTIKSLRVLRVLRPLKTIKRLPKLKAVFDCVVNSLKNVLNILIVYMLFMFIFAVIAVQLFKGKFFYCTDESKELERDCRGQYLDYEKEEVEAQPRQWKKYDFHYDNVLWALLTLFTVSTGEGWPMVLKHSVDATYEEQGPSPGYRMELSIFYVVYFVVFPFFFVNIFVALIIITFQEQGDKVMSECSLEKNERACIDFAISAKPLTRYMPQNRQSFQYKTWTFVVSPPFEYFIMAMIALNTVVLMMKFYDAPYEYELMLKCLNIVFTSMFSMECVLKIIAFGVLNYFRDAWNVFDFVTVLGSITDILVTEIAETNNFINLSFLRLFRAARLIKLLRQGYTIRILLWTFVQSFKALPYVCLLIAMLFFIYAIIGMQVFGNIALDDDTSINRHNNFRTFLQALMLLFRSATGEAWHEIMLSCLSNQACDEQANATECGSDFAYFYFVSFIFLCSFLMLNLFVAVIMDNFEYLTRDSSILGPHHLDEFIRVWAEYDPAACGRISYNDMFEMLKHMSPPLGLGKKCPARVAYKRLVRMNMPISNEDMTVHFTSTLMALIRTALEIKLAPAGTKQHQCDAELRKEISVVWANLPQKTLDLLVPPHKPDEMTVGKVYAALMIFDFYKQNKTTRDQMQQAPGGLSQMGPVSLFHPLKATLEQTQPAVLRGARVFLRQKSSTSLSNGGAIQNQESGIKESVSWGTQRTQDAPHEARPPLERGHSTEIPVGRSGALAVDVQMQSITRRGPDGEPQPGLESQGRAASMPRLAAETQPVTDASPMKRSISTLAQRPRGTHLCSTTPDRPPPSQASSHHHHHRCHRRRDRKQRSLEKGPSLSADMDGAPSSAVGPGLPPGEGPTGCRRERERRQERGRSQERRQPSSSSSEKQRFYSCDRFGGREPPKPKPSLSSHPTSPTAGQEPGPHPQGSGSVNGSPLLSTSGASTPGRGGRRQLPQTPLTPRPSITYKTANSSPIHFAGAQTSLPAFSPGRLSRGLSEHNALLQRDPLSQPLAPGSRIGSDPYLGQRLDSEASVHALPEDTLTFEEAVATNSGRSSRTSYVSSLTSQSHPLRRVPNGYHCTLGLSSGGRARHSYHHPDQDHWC
T4 sequence (Q02410 whole entry): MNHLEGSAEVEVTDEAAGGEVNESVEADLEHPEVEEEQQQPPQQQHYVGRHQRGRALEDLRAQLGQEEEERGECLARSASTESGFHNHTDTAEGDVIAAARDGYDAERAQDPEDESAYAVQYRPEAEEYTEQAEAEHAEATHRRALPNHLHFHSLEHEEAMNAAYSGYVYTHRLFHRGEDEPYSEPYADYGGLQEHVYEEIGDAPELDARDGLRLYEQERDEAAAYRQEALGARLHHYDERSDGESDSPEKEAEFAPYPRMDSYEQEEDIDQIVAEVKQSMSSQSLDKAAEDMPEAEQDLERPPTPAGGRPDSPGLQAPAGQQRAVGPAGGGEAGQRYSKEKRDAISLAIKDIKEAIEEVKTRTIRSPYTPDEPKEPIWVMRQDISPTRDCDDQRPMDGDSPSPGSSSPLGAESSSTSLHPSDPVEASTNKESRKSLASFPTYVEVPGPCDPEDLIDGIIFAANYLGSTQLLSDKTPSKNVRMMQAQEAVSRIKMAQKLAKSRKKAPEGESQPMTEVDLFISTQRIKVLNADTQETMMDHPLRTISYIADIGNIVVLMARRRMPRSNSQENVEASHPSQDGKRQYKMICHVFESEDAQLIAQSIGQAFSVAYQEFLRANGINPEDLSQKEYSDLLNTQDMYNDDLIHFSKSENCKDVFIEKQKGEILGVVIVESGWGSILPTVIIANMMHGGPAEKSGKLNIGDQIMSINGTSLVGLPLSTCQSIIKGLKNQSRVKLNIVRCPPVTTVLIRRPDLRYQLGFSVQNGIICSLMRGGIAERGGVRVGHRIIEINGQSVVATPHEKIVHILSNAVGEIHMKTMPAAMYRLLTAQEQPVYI

[7] = biological target: Large T antigen (Simian virus 40, UniProt P03070); type: functional, Betapolyomavirus macacae;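 note: Confirmatory-stage PubChem screen for compounds that inhibit SV40 T antigen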
[8] = THP-1 cell cytotoxicity, dose response, cytotoxicity control for non-replicating M. tuberculosis project (AID 489025); type: functional
[9] = biological target: T4, Voltage-gated N-type calcium channel alpha-1B subunit/Amyloid beta A4 precursor protein-binding family A member 1; type: protein assay; remark: listed apart in the source
[10] = biological target: T5, Alkaline phosphatase, tissue-nonspecific isozyme (Homo sapiens, UniProt P05186); assay: activation of tissue-nonspecific alkaline phosphatase – biochemical, TNAP isozyme, human IAP uHTS hits, selectivity assay for human IAP activator project, dose response (AID 488886); type: functional;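 note: potency of compounds raising TNAP activity as a selectivity check on IAP activators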
T5 sequence (P05186 whole entry): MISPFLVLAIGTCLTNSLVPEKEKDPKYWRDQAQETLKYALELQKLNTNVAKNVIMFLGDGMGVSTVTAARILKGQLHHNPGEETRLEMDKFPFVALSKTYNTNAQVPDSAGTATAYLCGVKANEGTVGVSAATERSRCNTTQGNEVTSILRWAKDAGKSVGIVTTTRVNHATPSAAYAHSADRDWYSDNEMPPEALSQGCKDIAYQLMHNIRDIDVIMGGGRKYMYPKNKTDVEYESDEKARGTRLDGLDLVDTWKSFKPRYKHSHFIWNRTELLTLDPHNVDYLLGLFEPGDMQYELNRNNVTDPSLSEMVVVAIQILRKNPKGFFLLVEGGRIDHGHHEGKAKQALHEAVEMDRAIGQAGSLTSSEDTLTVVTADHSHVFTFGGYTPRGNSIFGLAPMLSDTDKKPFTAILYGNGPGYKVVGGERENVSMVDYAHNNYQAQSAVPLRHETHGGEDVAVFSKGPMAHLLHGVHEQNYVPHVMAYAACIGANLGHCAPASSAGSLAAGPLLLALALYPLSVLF

[11] = biological target: T6, Intestinal-type alkaline phosphatase (Homo sapiens, UniProt P09923); assay: human intestinal alkaline phosphatase activators, dose response, biochemical, luminescence, uHTS hits (AID 463120); type: functional
T6 sequence (P09923 whole entry): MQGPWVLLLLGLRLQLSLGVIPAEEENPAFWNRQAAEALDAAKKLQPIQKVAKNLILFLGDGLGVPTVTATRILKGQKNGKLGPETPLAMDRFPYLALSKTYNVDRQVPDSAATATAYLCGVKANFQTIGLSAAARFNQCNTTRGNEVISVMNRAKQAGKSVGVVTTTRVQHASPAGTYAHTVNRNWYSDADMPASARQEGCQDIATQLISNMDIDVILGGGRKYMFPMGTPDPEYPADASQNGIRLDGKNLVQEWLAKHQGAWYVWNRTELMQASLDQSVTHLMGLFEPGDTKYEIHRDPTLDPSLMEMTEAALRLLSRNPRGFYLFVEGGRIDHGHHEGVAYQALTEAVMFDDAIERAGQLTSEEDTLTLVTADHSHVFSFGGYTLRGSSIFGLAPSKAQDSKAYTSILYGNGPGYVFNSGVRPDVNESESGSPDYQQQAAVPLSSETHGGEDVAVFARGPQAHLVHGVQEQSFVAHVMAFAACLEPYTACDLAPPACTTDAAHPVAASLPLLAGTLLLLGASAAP

[12] = biological target: Intestinal-type alkaline phosphatase (Mus musculus, UniProt P24822); assay: PubChem AID 488874; type: functional
[13] = system: Streptococcus; assay: GAS UMAA2166 growth inhibition – luminescence, BacTiterGlo, counter-screen for streptokinase expression inhibitor project, dose response (AID 1915); type: functional, organism-based;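 note: potency for reduction of bacterial viability or growth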
[14] = biological target: T7, Streptokinase A (Streptococcus pyogenes serotype M1, UniProt P10520); assay: viability-normalized secreted streptokinase activity reduction – plasminogen activation absorbance, OD405, dose response (AID 1914); type: functional, Streptococcus pyogenes M1 GAS;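 note: secreted streptokinase activity via plasminogen activation per viability signal from cell pellet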
T7 sequence (P10520 whole entry): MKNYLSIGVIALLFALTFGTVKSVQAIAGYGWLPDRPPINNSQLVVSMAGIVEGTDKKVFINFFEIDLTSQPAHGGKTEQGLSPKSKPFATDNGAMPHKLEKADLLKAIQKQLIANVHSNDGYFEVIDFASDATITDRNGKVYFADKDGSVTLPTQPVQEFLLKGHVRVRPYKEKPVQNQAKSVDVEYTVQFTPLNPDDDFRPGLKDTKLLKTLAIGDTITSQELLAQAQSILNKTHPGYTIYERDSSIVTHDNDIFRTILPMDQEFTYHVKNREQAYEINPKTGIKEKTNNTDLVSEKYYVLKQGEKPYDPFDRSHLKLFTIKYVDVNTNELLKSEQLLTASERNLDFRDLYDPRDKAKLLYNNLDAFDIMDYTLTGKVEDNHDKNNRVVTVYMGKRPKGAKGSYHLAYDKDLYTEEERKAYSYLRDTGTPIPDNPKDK

[15] = biological target: T6, Intestinal-type alkaline phosphatase; assay: activation of human intestinal alkaline phosphatase – biochemical, luminescent, uHTS hits, set 2, dose response (AID 488817); type: functional;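 note: potency of activators that raise enzyme activity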
[16] = system: Streptococcus sp. 'group A'; assay: Streptococcus pyogenes SK(-)GAS viability under kanamycin – luminescence, BacTiterGlo, confirmation, counter-screen for streptokinase expression inhibitor project, dose response (AID 1900); type: functional, organism-based
[17] = system: HEK293; assay: cells; details: Homo sapiens
[18] = system: HEK293; assay: cells; type: functional, cell-based; details: Homo sapiens
[19] = system: HEK293; assay: inhibition of NOD1-driven NF-kB reporter – cell-based, luminescence, uHTS, primary screen (AID 1578); type: functional; details: Homo sapiens
[20] = system: HEK293; assay: cells; type: functional, cell-based; details: Homo sapiens; remark: listed apart in the source
[21] = system: HEK293; assay: cells; details: Homo sapiens; remark: listed apart in the source
[22] = system: HEK293; assay: NOD2 signaling inhibitors in MDP-stimulated cells, cell-based, uHTS, luminescence (AID 2001); type: functional; details: Homo sapiens
[23] = biological target: T3, DNA dC->dU-editing enzyme APOBEC-3G; type: functional
[24] = biological target: Polyadenylate-binding protein 1 (Homo sapiens, UniProt P11940); assay: blockers of PABP interaction with poly(A) – biochemical, fluorescence polarization, […] (AID 2014)
[25] = biological target: T1, DNA dC->dU-editing enzyme APOBEC-3A; assay: Dose Response confirmation of small molecule APOBEC3A DNA Deaminase Inhibitors via a fluorescence-based single-stranded DNA deaminase assay. [Related pubchem assays (depositor defined):AID493011, AID493024]; type: functional
[26] = biological target: Eukaryotic translation initiation factor 4H (Homo sapiens, UniProt Q15056); assay: eIF4H binding inhibition – biochemical, uHTS, fluorescence polarization, translation initiation inhibitor project, primary screen (AID 2012)
[27] = microbe, parasite or virus in culture; type: functional; details: Mycobacterium tuberculosis
[28] = HIV-1 AD8 envelope cell-cell fusion blockers – cherry-pick, dose response (AID 652062); type: functional, cell-based;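 note: luciferase signal from cell-cell fusion driven by HIV-1 clade B AD8 Env; potency is for inhibitors of fusion seen as a drop in luminescence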
[29] = decrease of insulin promoter-GFP reporter – imaging, high-content screening, mouse beta cells (AID 1628); type: functional; details: MIN6
[30] = MIN6 cell viability loss – mouse insulinoma, cytotoxicity control, dose response (AID 2122); type: functional;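 note: confirmatory high-throughput counterscreen run to flag cytotoxic compounds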
[31] = system: INS1; assay: INS-1E survival protection against cytokine death – cell-based, luminescence, retest, dose response (AID 449756); type: functional; details: Rattus norvegicus;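 note: cell death triggered by IL-1 beta plus TNF-alpha plus IFN-gamma mixture; protective hits raise ATP signal compared with cytokine alone wells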
[32] = blockers of HIV-1 ZM109 envelope-driven cell-cell fusion – HeLa effector, CEM target cells, luciferase, cherry-pick, dose response (AID 652058); type: functional, cell-based;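 note: luciferase signal from HIV-1 Env mediated cell-cell fusion of effector and target cells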
[33] = viability of HCT116 lacking mutant beta-catenin – cell-based, human colon tumor, dose response (AID 1045); type: functional;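 note: HCT116 colon tumor cells with beta catenin knocked out; cells exposed to compound for 60 hours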
[34] = viability of PTEN-deleted HCT116 cells – cell-based, HCT116 PTEN knockout, dose response (AID 1047); type: functional;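 note: HCT116 colon tumor cells with PTEN knocked out; cells exposed to compound for 60 hours before readout; potency for loss of cell viability measured by luminescence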
[35] = biological target: Cytochrome P450 3A4 (Homo sapiens, UniProt P08684);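 note: CYP3A4 tested as one member of a cytochrome P450 panel screen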
[36] = off-target signal loss in HeLa-CEM21 co-culture – HeLa F-luc CTL cells, cherry-picked, counter-screen for HIV-1 Env fusion inhibitor project, dose response (AID 652040); type: functional, cell-based;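 note: potency for signal decrease marking cytotoxic or nonspecific inhibition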
[37] = blockers of HIV-1 envelope-mediated cell-cell fusion – cherry-pick, dose response (AID 652057); type: functional, cell-based
[38] = biological target: T8, Rac GTPase-activating protein 1 (Homo sapiens, UniProt Q9H0H5); assay: blockers of MgcRacGAP-driven Rac1 GTP hydrolysis – biochemical, ADP Hunter fluorescence, primary and confirmatory, confirmation (AID 624330); type: functional
T8 sequence (Q9H0H5 whole entry): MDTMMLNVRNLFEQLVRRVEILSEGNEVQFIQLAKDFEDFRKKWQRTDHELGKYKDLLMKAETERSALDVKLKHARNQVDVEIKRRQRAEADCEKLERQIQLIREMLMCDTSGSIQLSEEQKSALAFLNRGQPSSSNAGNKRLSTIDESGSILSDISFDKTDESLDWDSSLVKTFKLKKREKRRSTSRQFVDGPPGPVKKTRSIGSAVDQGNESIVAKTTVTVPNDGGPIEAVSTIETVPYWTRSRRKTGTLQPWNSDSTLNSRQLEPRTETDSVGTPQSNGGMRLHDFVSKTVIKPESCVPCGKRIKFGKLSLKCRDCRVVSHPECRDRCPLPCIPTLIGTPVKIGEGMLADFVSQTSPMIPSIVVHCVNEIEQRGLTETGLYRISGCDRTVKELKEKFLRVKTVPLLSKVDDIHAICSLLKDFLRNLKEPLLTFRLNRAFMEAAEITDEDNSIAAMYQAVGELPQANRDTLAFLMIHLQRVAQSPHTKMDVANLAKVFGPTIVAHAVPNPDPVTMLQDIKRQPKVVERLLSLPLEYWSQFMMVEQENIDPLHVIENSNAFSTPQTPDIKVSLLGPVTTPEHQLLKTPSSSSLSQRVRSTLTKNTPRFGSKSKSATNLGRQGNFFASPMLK

T1 sequence (P31941 whole entry): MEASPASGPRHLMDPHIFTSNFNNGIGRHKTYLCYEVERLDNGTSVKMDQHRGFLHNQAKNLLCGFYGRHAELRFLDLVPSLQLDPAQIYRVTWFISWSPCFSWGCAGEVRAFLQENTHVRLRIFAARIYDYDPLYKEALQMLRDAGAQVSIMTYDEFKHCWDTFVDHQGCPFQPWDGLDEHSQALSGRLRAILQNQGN

COc1cc(SSc2cc(OC)cc([N+](=O)[O-])c2N)c(N)c([N+](=O)[O-])c1
IC50 [1]: > 100 µM (inactive) | IC50 [2]: > 54 µM (active) | EC50 [3]: > 260 µM (inactive) | IC50 [4]: 2.54 µM (active) | IC50 [5]: 20.9 µM (inactive)

CCOc1ccc(NC(=O)Cn2sc3nc(C)cc(C)c3c2=O)cc1
IC50 [6]: > 50 µM (inactive) | IC50 [1]: > 100 µM (inactive) | IC50 [7]: > 100 µM (active) | CC50 [8]: 36.1 µM (active) | IC50 [9]: 13.1 µM (active) | IC50 [4]: 2.96 µM (active) | IC50 [5]: 24.1 µM (inactive)

O=C(CCN1C(=O)/C(=C/c2ccccc2Cl)SC1=S)NNC(=O)c1ccccc1O
EC50 [10]: 23.2 µM (active) | EC50 [11]: 7.7 µM (active) | IC50 [12]: 66.5 µM (active) | EC50 [13]: 14.6 µM (active) | EC50 [14]: 8.36 µM (active) | EC50 [15]: 17.7 µM (active) | EC50 [16]: 3.63 µM (active)

CN(C)S(=O)(=O)c1cc(NC(=O)CSc2nn(-c3ccc(Cl)cc3)c(=S)s2)ccc1Cl
EC50 [17]: > 59.7 µM (inactive) | IC50 [18]: 5.23 µM (active) | EC50 [19]: 13.4 µM (active) | IC50 [20]: 11.2 µM (active) | EC50 [21]: > 59.7 µM (inactive) | IC50 [22]: 4.69 µM (active)

CCOC(=O)COc1ccc(Br)cc1/C=C1\SC(N)=NC1=O
IC50 [23]: 8.41 µM (active) | IC50 [24]: 7.13 µM (active) | IC50 [25]: 8.37 µM (active) | IC50 [26]: > 100 µM (inactive)

c1ccc2c(c1)ncn2CCCCOc1ccc2c(c1)CCC2
CC50 [27]: > 40 µM (active) | AC50 [28]: 9.21 µM (active) | IC50 [29]: 2.69 µM (active) | IC50 [30]: 2.1 µM (active) | AC50 [31]: 5.04 µM (active) | AC50 [32]: 28.6 µM (active) | EC50 [33]: 22.8 µM (active) | EC50 [34]: 24.1 µM (active)

CN(C)c1ncc2nc(-c3ccc(Cl)cc3)c(=O)n(Cc3ccc(F)cc3)c2n1
AC50 [35]: inconclusive

Cc1ccc(C)c(NC(=O)c2cc[n+](C)cc2)c1
IC50 [23]: 4.76 µM (active) | IC50 [25]: 2.08 µM (active)

COc1ccc(C(C)=O)cc1CC1(C)C(=O)Nc2ccc(-c3ccccc3OC)cc21 (centres undefined)
EC50 [17]: > 59.6 µM (inactive) | AC50 [28]: 2.02 µM (active) | AC50 [32]: 0.627 µM (active) | AC50 [36]: 0.397 µM (active) | AC50 [37]: 0.29 µM (active) | EC50 [21]: > 59.6 µM (inactive)

COc1cc(/C=N/n2c(S)nnc2-c2cc(C)[nH]n2)cc(OC)c1OC
IC50 [1]: > 100 µM (inactive) | IC50 [4]: 2.5 µM (active) | IC50 [38]: 82.2 µM (active)

— ChEMBL document CHEMBL1201862, “PubChem BioAssay data set” (2004)
